Measurements: patent US20260248809A1, “ESTRADIOL PRODRUGS AND METHODS OF USE THEREOF” (UNIVERSITY OF MARYLAND, BALTIMORE, priority 2022, published 2026)

Assays:
[1] = test system: C3 expression; conditions: rat, in vivo; cited from earlier work
[2] = test system: ERβ-expressing BLA-to-NAc neurons; assay: cFos immunofluorescence of ERβ projections to the NAc after E2 and SSDS; type: in vivo, mouse
[3] = test system: male mice; assay: Subthreshold social defeat stress followed by female urine sniffing test (anhedonia); type: in vivo, mouse; conditions: for stress-induced anhedonia: chronic treatment (silastic implant or minipump), orchiectomized male mice + SSDS; for anhedonia (female urine preference): orchiectomized male mice
Method: Subthreshold social defeat stress: Retired CD1 breeders are singly housed and used as aggressors. Experimental mice are introduced to the home cage of an aggressor for 2 min to initiate the physical attack phase. Afterward, mice are transferred and housed on the opposite side of the aggressor, in the same cage separated by a perforated Plexiglass divider for 15 mins in order to maintain sensory contact. This process is repeated 3 times over a period of ~50 min.
(§1) Female Urine Preference Test: is performed 24 hours after the social interaction test as using previously described methods. The amount of time mice spent interacting with a cotton-tipped applicator soaked in either fresh male or female mouse urine during a total of 3 minutes is analyzed by an experimenter blind to the experimental groups.
For the chronic administration paradigms, silastic tubes (1.02 mm inner diameter×2.16 mm outer diameter) were filled with testosterone (10 mm) or 17β-Estradiol (E2; 1,3 and 10 mm; Sigma-Aldrich, St. Louis, MO, USA). Silastic implants were primed in 0.9% saline at 37° C. overnight prior to their subcutaneous use. Letrozole (1 mg/kg/day; Sigma-Aldrich, St. Louis, MO, USA) was dissolved in propylene glycol (MP Biomedicals, Santa Ana, CA, USA) and administered through ALZET minipumps (Model 1002, 0.25 μl/hour, 14 days; Cupertino, CA, USA). DHED (synthesized using previously described methods) was dissolved in 0.9% saline and administered through ALZET minipumps (Model 1002, 0.25 μl/hour, 14 days; Cupertino, CA, USA) at a dose of […]. Flutamide was administered through 1.5 mg slow-release subcutaneous pellets (Innovative Research of America, Sarasota, FL, USA). For acute administration, 17β-Estradiol (E2; 10 and […]) was dissolved in sesame oil (4 ml/kg, s.c.; Sigma-Aldrich, St. Louis, MO, USA).
Retired CD1 breeders were singly housed and used as aggressors. Two days prior to the start of the experiment, experimental mice were also singly housed. The stress procedure was performed using previously described methods. Briefly, experimental mice were introduced to the home cage of an aggressor for 2 min to initiate the physical attack phase. Afterward, mice were transferred and housed on the opposite side of the aggressor, in the same cage separated by a perforated Plexiglass divider for 15 mins in order to maintain sensory contact. This process was repeated 3 times over a period of ~50 min. Following the completion of the third cycle, mice were placed back in their home cages.
Acute E2 was administered 45 min prior to the initiation of stress or 5 min after the completion of stress. For the optogenetic stimulation, ChR2 and YFP-injected mice received a 4 Hz, 5 ms pulse width, 10-15 mW 470 nm light stimulation for 45 min prior to the initiation of stress. This stimulation paradigm was shown previously to increase synaptic transmission. The optogenetic set up consisted of an LED driver paired with a fiber-coupled LED light source attached to a bifurcated optogenetic path cable (400 μm, 0.49 NA; ThorLabs, Newton NJ, USA).
as §1, with “FUST procedure was” for “Female Urine Preference Test: is”, “and 48 hours after stress. FUST was performed” for “as”, “was” for “is”

[4] = test system: gonadectomized mice; assay: Inescapable foot shock stress followed by female urine preference; type: in vivo, mouse; conditions: 10 mm silastic implant; for stress-induced female urine preference deficits: orchiectomized males, inescapable foot shock
Method: Determine effects of E2 on gonadectomy-induced susceptibility to inescapable traumatic shock stress in males and females. Most of these experiments assess the effects of social defeat stress. In this experiment the effects of an alternative type of stress-inescapable foot shocks are assessed—to determine whether the observed biological effects of E2 are stress specific. […] The effects of this stress on maladaptive behaviors and their possible reversal by testosterone and E2 are assessed. The following groups of mice are used for this experiment: (1) Sham Surgery+empty silastic tube; (2) ORX+empty silastic tube; (3) Sham Surgery+testosterone (10 mm) containing silastic tube; (4) ORX+testosterone (10 mm) containing silastic tube; (5) Sham Surgery+E2 (10 mm) containing silastic tube; (6) ORX+E2 (10 mm) containing silastic tube. Mice are exposed to inescapable foot shock (0.3 mA shocks; 180 shocks at 15 sec intervals) in a two-chambered shuttle box with a permanent divider in place. Controls are placed in the same chambers but will not receive shocks. Twenty-four hours later mice are subsequently tested for social interaction and female urine preference. As a comparison to male results, a similar experiment is conducted in females with the following groups: (1) Sham Surgery+empty silastic tube; (2) OVX+empty silastic tube; (3) Sham Surgery+E2 (10 mm) containing silastic tube; (4) OVX+E2 (10 mm) containing silastic tube. It is predicted that the effects of orchiectomy in males are reproduced to enhance stress-induced decreases in female urine preference deficits, which will be prevented by both testosterone and E2.

[5] = test system: TRPM-2, ODC, AR and ERα expression; conditions: in vivo; cited from earlier work

In the case of `C[C@]12CC[C@@H]3c4ccc(O)cc4CC[C@H]3[C@@H]1CC[C@@H]2O` [Example E2, 17β-Estradiol], the “uterus C3 expression” value [1] is listed as “increases C3 expression”, the “activation of ERβ-expressing BLA-to-NAc neurons (c-Fos)” value ([2]; orchiectomized mice, acute treatment prior to SSDS) is listed as “activated at a significantly higher degree” and the “activation of the other strong ERβ-projections to the NAc (c-Fos)” value ([2]; prefrontal, cingulate and insular cortex projections) is listed as “activation of any of the other strong ERβ-projections to the NAc in response to E2 was observed”. The stress-induced anhedonia [3] was “reversed”, the “anhedonia (female urine preference)” value ([3]; acute administration 5 min after SSDS) was “reversed only the anhedonia phenotype” and the “anhedonia (female urine preference)” value ([3]; acute s.c. administration 45 min prior to SSDS) was “prevented”. The “stress-induced female urine preference deficits” value [4] was “prevented”, the “effects of ovariectomy plus foot shock stress” value ([4]; ovariectomized females) was “prevented by the replacement of E2” and the “expression of TRPM-2, ODC, AR and ERα in the prostate gland” value [5] was “decreases in the expression”.
In the case of `C[C@]12CC[C@H]3[C@@H](CCC4=CC(=O)CC[C@@]43C)[C@@H]1CC[C@@H]2O` [Testosterone, testosterone], the stress-induced anhedonia [3] is reported as “reversed the observed maladaptive behaviors” and the “stress-induced female urine preference deficits” value [4] is reported as “prevented”.
